The record followed here is patent US20220169654A1, “New Organic Compounds” (Servier Pharmaceuticals LLC, priority 2020, published 2022).

SMILES strings stand for the structures. Bounds are passed on as bounds.

Test [1] relates to SAM in HCT116 human colon carcinoma cell line with MTAP gene deleted (MTAP −/−). Description: Cellular assay of target engagement (SAM), LC-MS/MS, 72 hrs. The note with it: HCT-116, IC50 bin with Max Inh., read-out: Cell 72 h SAM Inhibition (MTAP −/−). Format: cell-based. As for the experimental part: Measurement of MAT2A activity in cells was made by direct quantitation of the abundance of the product of its enzymatic activity, SAM. Cancer cells were treated with candidate MAT2A inhibitors for a suitable incubation period, and the cells were then lysed using a reagent which quenched any further enzyme activity. Soluble metabolites including SAM were collected and SAM itself was directly measured from the lysate using quantitative LC-MS/MS.
A typical assay was performed using an HCT116 human colon carcinoma cell line which was genetically engineered to delete the MTAP gene (commercially available from Horizon Discovery). This cell line was utilized because it was determined that loss of the MTAP gene predicts sensitivity to MAT2A inhibitors. Cells were plated in 96-well dishes at appropriate cell density. Following 24 hours, cells were then treated with the candidate MAT2A inhibitor. Prior to addition to cells, the compound was first serially diluted in 100% DMSO, typically as a 3-fold serial dilution starting at 500× top dose with 10 dose points including DMSO only control. Compound was then transferred to a working stock plate in cell culture media by adding 5 μL of compound in DMSO to 495 μL of cell culture media. This working stock was then added to cells via a further 5-fold dilution, by adding 25 μL of working stock to 100 μL of cells in culture media. Following compound addition, cells were incubated at 37° C./5% CO2 for 72 hrs.
To quantitate SAM levels following compound treatment, cells were gently washed once in ammonium carbonate buffer (75 mM at pH 7.4), placed on dry ice, and lysed with metabolite extraction buffer (80% cold methanol and 20% water (v/v) with acetic acid at 1M final concentration with 200 ng/mL deuterated d3-SAM as internal control). Following centrifugation at 4° C. at 3,200 rpm for 30 minutes, the supernatant was collected and stored at −80° C. until analysis by Liquid Chromatography with tandem Mass Spectrometry (LC-MS/MS). LC-MS/MS analysis was performed using an API6500 Mass Spectrometer (Sciex, Framingham, Mass., USA) operating in positive ion spray mode and equipped with a Waters UPLC Acquity (Waters, Milford, Mass., USA) BEH Amide column. Multiple Reaction Monitoring data was acquired for SAM and the d3-SAM standard, using a mass transition pair at m/z 399.2→250.1 and 402.2→250.1, respectively. In a typical LC-MS/MS analysis, the initial flow rate was 0.5 ml/min of 25% mobile phase A (acetonitrile and water at 5:95 (v/v) with 1% formic acid and 10 mM ammonium acetate) and 75% mobile phase B (acetonitrile and water at 95:5 (v/v) with 1% formic acid and 10 mM ammonium acetate), 0.2-0.5 minutes with 75%-35% mobile phase B, 25%-65% mobile phase A, at 0.5 min 65% mobile phase A and 35% mobile phase B, 1.0-1.1 minutes with 35%-75% mobile phase B, 65%-25% mobile phase A, at 1.1 min 25% mobile phase A and 75% mobile phase B with a total run time of 1.5 minutes.
Specific compounds disclosed herein were tested in the foregoing assay and they were determined to inhibit SAM with an IC50. See, Table 1 below.

For test [2], the system named is HCT116 MTAP+/+. In words: Inhibition of cellular proliferation, 4 days, Cell Titer Glo, HCT116 MTAP+/+. It is filed as cell-based. Conditions: Homo sapiens, HCT-116, 96 h, IC50 bin with Max Inh., read-out: 4 Day Relative Growth Inhibition (MTAP +/+). As for the experimental part:
(§1) Test compound impact on cancer cell growth was assessed by treating cancer cells with compound for 4 days and then measuring proliferation using an ATP-based cell proliferation readout (Cell Titer Glo, Promega Corporation).
(§2) In a typical assay an isogenic pair of HCT116 human colon carcinoma cell lines which vary only in MTAP deletion status (HCT116 MTAP+/+ and HCT116 MTAP−/−) were plated in 96-well dishes at appropriate cell density. Following 24 hours, cells were then treated with the candidate MAT2A inhibitor. Prior to addition to cells, the compound was first serially diluted in 100% DMSO, typically as a 3-fold serial dilution starting at 500× top dose with 10 dose points including DMSO only control. Compound was then transferred to a working stock plate in cell culture media by adding 5 μL of compound in DMSO to 495 μL of cell culture media. This working stock was then added to cells via a further 5-fold dilution, by adding 25 μL of working stock to 100 μL of cells in culture media. Following compound addition, cells were incubated at 37° C./5% CO2 for 4 days.
(§3) To measure inhibition of cellular proliferation, cells were allowed to equilibrate to room temperature for 30 minutes, and were then treated with 125 μL of Cell Titer Glo reagent. The plate was then covered with aluminum foil and shaken for 15 minutes to ensure complete mixing and full cell lysis. Luminescent signal was then measured using a plate-based luminometer Veritas version 1.9.2 using ATP standard curve to confirm assay reproducibility from run to run. This luminescence measure was converted to a proliferation index by subtracting from each data point the ATP luminescence signal measured from a bank (no cells) well and dividing by the ATP luminescence signal measured in 0.2% DMSO control well adjusted for signal in blank well. Compound activity was then represented as a percentage change in proliferation relative to a within-plate DMSO control against log 10 of compound concentration in molar (M) units.
(§4) Specific compounds disclosed herein were tested in the foregoing assay and they were determined to inhibit cellular proliferation with an IC50. See, Table 1 below.

Test [3] concerns HCT116 MTAP−/−. In words: Inhibition of cellular proliferation, 4 days, Cell Titer Glo, HCT116 MTAP−/−. Format: cell-based. The note with it: Homo sapiens, HCT-116, 96 h, IC50 bin with Max Inh., read-out: 4 Day Relative Growth Inhibition (MTAP −/−). As for the experimental part: as §1, §2, §3, §4
(In ATP-based viability assays light output follows the ATP content of the culture.)

Test [4] addresses T1, MAT2A homodimer (Homo sapiens, UniProt P31153).
T1 construct: inferred from Ni sepharose purification with imidazole elution; made in house; host or cells: Sf9 insect cells, baculovirus (Bac to Bac, pFASTBAC1)
Description: MAT2A inhibition (biochemical, liberated phosphate, PiColorLock Gold). The note with it: recombinant MAT2A homodimer; IC50 bin with Max Inh.; read-out: Enzyme Inhibition Bin. In a few lines: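 Baculovirus/Sf9-expressed, Ni-purified MAT2A (4 μg/mL) preincubated with compound 60 min at 25 °C in Tris pH 8.0/KCl/MgCl2 buffer. Reaction started with 500 μM ATP and 400 μM L-methionine (substrate-mix concentrations), run 60 min at 25 °C. Phosphate measured colorimetrically against a phosphate standard curve to give IC50.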

T1 sequence (P31153 whole entry): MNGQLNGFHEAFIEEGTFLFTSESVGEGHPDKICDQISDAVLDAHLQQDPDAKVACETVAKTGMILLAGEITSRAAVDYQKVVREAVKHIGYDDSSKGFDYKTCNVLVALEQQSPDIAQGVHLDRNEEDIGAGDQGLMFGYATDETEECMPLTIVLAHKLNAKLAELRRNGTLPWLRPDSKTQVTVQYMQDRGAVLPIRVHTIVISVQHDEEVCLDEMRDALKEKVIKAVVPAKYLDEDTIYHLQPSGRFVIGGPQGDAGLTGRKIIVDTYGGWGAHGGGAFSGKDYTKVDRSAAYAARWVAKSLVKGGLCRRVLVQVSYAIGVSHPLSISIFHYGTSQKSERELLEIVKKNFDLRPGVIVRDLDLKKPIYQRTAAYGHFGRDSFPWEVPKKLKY

As to `Cn1cc2cc(-n3nc4ccn(CC5CC5)c4c(-c4ccc(CO)nc4)c3=O)ccc2n1` [Example 157, 5-(cyclopropylmethyl)-4-(6-(hydroxymethyl)pyridin-3-yl)-2-(2-methyl-2H-indazol-5-yl)-2,5-dihydro-3H-pyrrolo[3,2-c]pyridazin-3-one], the IC50 is less than 100 nM in test [1], 100 to 1000 nM in test [2], less than 100 nM in test [3] and less than 100 nM in test [4].

Regarding `Cc1c(C#N)c2nn(-c3ccc4nn(C)cc4c3)c(=O)c(-c3ccc(OC(F)F)cc3)c2n1CC1CC1` [Example 264, 5-(cyclopropylmethyl)-4-(4-(difluoromethoxy)phenyl)-6-methyl-2-(2-methyl-2H-indazol-5-yl)-3-oxo-3,5-dihydro-2H-pyrrolo[3,2-c]pyridazine-7-carbonitrile], the IC50 was less than 100 nM in test [1], greater than 1000 nM in test [2], less than 100 nM in test [3] and less than 100 nM in test [4].

In the case of `Cc1ccc(-c2c(=O)n(-c3ccc4nn(C)cc4c3)nc3c(C#N)cn(CC4CC4)c23)cn1` [Example 104, 5-(cyclopropylmethyl)-2-(2-methyl-2H-indazol-5-yl)-4-(6-methylpyridin-3-yl)-3-oxo-3,5-dihydro-2H-pyrrolo[3,2-c]pyridazine-7-carbonitrile], the IC50 is less than 100 nM in test [1], greater than 1000 nM in test [2], less than 100 nM in test [3] and less than 100 nM in test [4].

As to `Cn1cc2cc(-n3nc4c(C#N)cn(CC5CC5)c4c(-c4ccc(OC(F)F)nc4)c3=O)ccc2n1` [Example 114, 5-(cyclopropylmethyl)-4-(6-(difluoromethoxy)pyridin-3-yl)-2-(2-methyl-2H-indazol-5-yl)-3-oxo-3,5-dihydro-2H-pyrrolo[3,2-c]pyridazine-7-carbonitrile], the IC50 in test [1] is less than 100 nM; in test [2], greater than 1000 nM; in test [3], less than 100 nM; in test [4], less than 100 nM.

For `Cn1cc(-n2nc3ccn(CC4CC4)c3c(-c3ccc(OC(F)F)cc3)c2=O)ccc1=O` [Example 223, 5-(cyclopropylmethyl)-4-(4-(difluoromethoxy)phenyl)-2-(1-methyl-6-oxo-1,6-dihydropyridin-3-yl)-2,5-dihydro-3H-pyrrolo[3,2-c]pyridazin-3-one], the IC50 is less than 100 nM in test [1], 100 to 1000 nM in test [2], 100 to 1000 nM in test [3] and less than 100 nM in test [4].

`Cn1cc2cc(-n3nc4c(C(N)=O)cn(CC5CC5)c4c(-c4ccc(C5CC5)nc4)c3=O)ccc2n1` [Example 165, 5-(cyclopropylmethyl)-4-(6-cyclopropylpyridin-3-yl)-2-(2-methyl-2H-indazol-5-yl)-3-oxo-3,5-dihydro-2H-pyrrolo[3,2-c]pyridazine-7-carboxamide]: the IC50 in test [1] was less than 100 nM; in test [2], 100 to 1000 nM; in test [3], less than 100 nM; in test [4], less than 100 nM.

Turning to `[2H]C([2H])([2H])Oc1ccc(-n2nc3c(C#N)cn(CC4CC4)c3c(-c3ccc(C4CC4)nc3)c2=O)cc1` [Example 124, 5-(cyclopropylmethyl)-4-(6-cyclopropylpyridin-3-yl)-2-(4-(methoxy-d3)phenyl)-3-oxo-3,5-dihydro-2H-pyrrolo[3,2-c]pyridazine-7-carbonitrile], the IC50 in test [1] is less than 100 nM; in test [2], greater than 1000 nM; in test [3], 100 to 1000 nM; in test [4] it was less than 100 nM.

Take `Cn1cc2cc(-n3nc4nnn(CC5CC5)c4c(-c4ccc(C5CC5)cc4)c3=O)ccc2n1` [Example 209, 1-(cyclopropylmethyl)-7-(4-cyclopropylphenyl)-5-(2-methyl-2H-indazol-5-yl)-1,5-dihydro-6H-[1,2,3]triazolo[4,5-c]pyridazin-6-one]: the IC50 is 100 to 1000 nM in test [1], greater than 1000 nM in test [2], 100 to 1000 nM in test [3] and less than 100 nM in test [4].

With `CC(C)c1ccc(-c2c(=O)n(-c3ccc4nn(C)cc4c3)nc3ccn(CC4CC4)c23)cn1` [Example 129, 5-(cyclopropylmethyl)-4-(6-isopropylpyridin-3-yl)-2-(2-methyl-2H-indazol-5-yl)-2,5-dihydro-3H-pyrrolo[3,2-c]pyridazin-3-one], the IC50 in test [1] is 100 to 1000 nM; in test [2], greater than 1000 nM; in test [3] it was less than 100 nM; in test [4], less than 100 nM.

As for `CCc1ccc(-c2c(=O)n(-c3ccc4nc(C)n(C)c4c3)nc3c(C#N)cn(CC4CC4)c23)cn1` [Example 152, 5-(cyclopropylmethyl)-2-(1,2-dimethyl-1H-benzo[d]imidazol-6-yl)-4-(6-ethylpyridin-3-yl)-3-oxo-3,5-dihydro-2H-pyrrolo[3,2-c]pyridazine-7-carbonitrile], the IC50 in test [1] was less than 100 nM; in test [2], greater than 1000 nM; in test [3], less than 100 nM; in test [4], less than 100 nM.

In the case of `C=C(CF)c1ccc(-c2c(=O)n(-c3ccc4nn(C)cc4c3)nc3c(C#N)cn(CC4CC4)c23)cn1` [Example 257, 5-(cyclopropylmethyl)-4-(6-(3-fluoroprop-1-en-2-yl)pyridin-3-yl)-2-(2-methyl-2H-indazol-5-yl)-3-oxo-3,5-dihydro-2H-pyrrolo[3,2-c]pyridazine-7-carbonitrile], the IC50 in test [1] was 100 to 1000 nM; in test [2], greater than 1000 nM; in test [3], 100 to 1000 nM; in test [4], less than 100 nM.

Turning to `CNCc1cn(CC2CC2)c2c(-c3ccc(C4CC4)nc3)c(=O)n(-c3ccc4nn(C)cc4c3)nc12` [Example 267, 5-(cyclopropylmethyl)-4-(6-cyclopropylpyridin-3-yl)-2-(2-methyl-2H-indazol-5-yl)-7-((methylamino)methyl)-2,5-dihydro-3H-pyrrolo[3,2-c]pyridazin-3-one], the IC50 was 100 to 1000 nM in test [1], greater than 1000 nM in test [2], 100 to 1000 nM in test [3] and less than 100 nM in test [4].
